Assay results reported in the supplement of paper PMC10307832.

Assays:
Assay in all cases: relative viability (nuclei count vs DMSO), 5 days (fraction); higher = more cells survive
XMD14-99 + Tozasertib = compound: CN1CCN(CC1)C2=CC(=C(C=C2)NC3=NC(=C(S3)C(=O)C4=C(C=CC=C4Cl)Cl)N)OC [XMD14-99] + Cc1cc(Nc2cc(N3CCN(C)CC3)nc(Sc3ccc(NC(=O)C4CC4)cc3)n2)n[nH]1 [Tozasertib] (partner 0.1 µM)
In short: (§1)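 Lung cancer cell lines, seeded in 1536-well plates, were treated the following day by pin tool with a single drug or with five library-drug doses (not always all listed) in √10 steps on top of a fixed anchor-drug dose. Cells were fixed and nuclei stained in one step after 5 days, and nuclei were counted. Relative viability is the nuclei count for treated wells divided by that for vehicle wells, reported as medians of duplicate plates.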

AZD1208 + Foretinib = compound: N[C@@H]1CCCN(c2c(/C=C3\SC(=O)NC3=O)cccc2-c2ccccc2)C1 [AZD1208] + COc1cc2c(Oc3ccc(NC(=O)C4(C(=O)Nc5ccc(F)cc5)CC4)cc3F)ccnc2cc1OCCCN1CCOCC1 [Foretinib] (partner 0.25 µM)
In short: as §1

AZD1208 + Bortezomib = compound: N[C@@H]1CCCN(c2c(/C=C3\SC(=O)NC3=O)cccc2-c2ccccc2)C1 [AZD1208] + CC(C)C[C@H](NC(=O)[C@H](Cc1ccccc1)NC(=O)c1cnccn1)B(O)O [Bortezomib] (partner 0.002 µM)
In short: as §1

AZD1208 + Linsitinib = compound: N[C@@H]1CCCN(c2c(/C=C3\SC(=O)NC3=O)cccc2-c2ccccc2)C1 [AZD1208] + C[C@]1(O)C[C@@H](c2nc(-c3ccc4ccc(-c5ccccc5)nc4c3)c3c(N)nccn32)C1 [Linsitinib] (partner 1 µM)
In short: as §1

Row | Cell Line | relative viability (XMD14-99 + Tozasertib; first compound 0.08 µM) | relative viability (XMD14-99 + Tozasertib; first compound 0.8 µM) | relative viability (XMD14-99 + Tozasertib; first compound 2.53 µM) | relative viability (XMD14-99 + Tozasertib; first compound 8 µM) | relative viability (AZD1208 + Foretinib; first compound 0.08 µM) | relative viability (AZD1208 + Foretinib; first compound 0.253 µM) | relative viability (AZD1208 + Foretinib; first compound 0.8 µM) | relative viability (AZD1208 + Foretinib; first compound 2.53 µM) | relative viability (AZD1208 + Foretinib; first compound 8 µM) | relative viability (AZD1208 + Bortezomib; first compound 0.08 µM) | relative viability (AZD1208 + Bortezomib; first compound 0.253 µM) | relative viability (AZD1208 + Bortezomib; first compound 0.8 µM) | relative viability (AZD1208 + Bortezomib; first compound 2.53 µM) | relative viability (AZD1208 + Bortezomib; first compound 8 µM) | relative viability (AZD1208 + Linsitinib; first compound 0.08 µM) | relative viability (AZD1208 + Linsitinib; first compound 0.253 µM) | relative viability (AZD1208 + Linsitinib; first compound 0.8 µM) | relative viability (AZD1208 + Linsitinib; first compound 2.53 µM) | relative viability (AZD1208 + Linsitinib; first compound 8 µM)
1 | NCI-H520 | 0.432 | 0.438 | 0.363 | 0.338 | 0.746 | 0.754 | 0.656 | 0.612 | 0.396 | 0.597 | 0.718 | 0.311 | 0.428 | 0.399 | 0.904 | 1.07 | 0.808 | 0.819 | 0.83
2 | NCI-H596 | 0.881 | 0.839 | 0.892 | 0.803 | 0.882 | 0.912 | 0.806 | 0.865 | 0.673 | 0.578 | 0.857 | 0.98 | 1.01 | 0.878 | 0.97 | 1.02 | 0.975 | 1.01 | 0.714
3 | NCI-H647 | 0.203 | 0.375 | 0.218 | 0.114 | 1.07 | 1.25 | 1.04 | 1.16 | 0.897 | 1.05 | 1.12 | 0.902 | 0.774 | 0.774 | 1.22 | 1.1 | 1.06 | 1.03 | 1.06
4 | NCI-H650 | 0.747 | 0.688 | 0.667 | 0.581 | 1.03 | 1.03 | 0.977 | 0.9 | 0.829 | 1.16 | 0.774 | 0.788 | 0.438 | 0.664 | 0.877 | 0.83 | 0.784 | 0.482 | 0.71
5 | NCI-H661 | 0.355 | 0.337 | 0.37 | 0.338 | 0.979 | 1.15 | 1.04 | 0.994 | 0.951 | 0.665 | 0.817 | 0.724 | 0.759 | 0.852 | 0.505 | 0.568 | 0.519 | 0.416 | 0.483
6 | NCI-H727 | 0.661 | 0.558 | 0.532 | 0.342 | 0.843 | 0.938 | 0.737 | 0.533 | 0.781 | 0.641 | 0.895 | 0.804 | 0.882 | 0.697 | 0.29 | 0.219 | 0.264 | 0.259 | 0.225
7 | NCI-H838 | 0.265 | 0.24 | 0.269 | 0.194 | 1.03 | 1 | 0.939 | 1.02 | 0.946 | 0.873 | 0.94 | 0.714 | 0.8 | 0.692 | 0.992 | 1.09 | 0.815 | 1.02 | 0.817
8 | NCI-H1355 | 0.54 | 0.519 | 0.408 | 0.324 | 0.973 | 1 | 0.878 | 0.84 | 0.784 | 1.29 | 1.09 | 1.15 | 1.2 | 1.04 | 0.846 | 0.921 | 0.718 | 0.737 | 0.695
9 | NCI-H1437 | 0.426 | 0.336 | 0.321 | 0.219 | 1.31 | 1.17 | 1.36 | 1.42 | 1.42 | 0.542 | 0.754 | 0.584 | 0.42 | 0.444 | 1.03 | 1.09 | 0.887 | 0.832 | 0.866
